From PubChem BioAssay AID1033 (Sanford-Burnham Center for Chemical Genomics, 2008)
The source made the active and inactive calls. How the calls were made is not given here.

Each compound was assayed against Chaperone protein DnaK (Escherichia coli (strain K12)) (UniProt P0A6Y8) (assay: binders of DnaK substrate-binding domain, biophysical, NMR, chaperone (AID 1033)). Details: Purified DnaK SBD, NMR ligand binding.
Chaperone protein DnaK (Escherichia coli (strain K12)), sequence (P0A6Y8 whole entry, looked up, the tested form may be a part): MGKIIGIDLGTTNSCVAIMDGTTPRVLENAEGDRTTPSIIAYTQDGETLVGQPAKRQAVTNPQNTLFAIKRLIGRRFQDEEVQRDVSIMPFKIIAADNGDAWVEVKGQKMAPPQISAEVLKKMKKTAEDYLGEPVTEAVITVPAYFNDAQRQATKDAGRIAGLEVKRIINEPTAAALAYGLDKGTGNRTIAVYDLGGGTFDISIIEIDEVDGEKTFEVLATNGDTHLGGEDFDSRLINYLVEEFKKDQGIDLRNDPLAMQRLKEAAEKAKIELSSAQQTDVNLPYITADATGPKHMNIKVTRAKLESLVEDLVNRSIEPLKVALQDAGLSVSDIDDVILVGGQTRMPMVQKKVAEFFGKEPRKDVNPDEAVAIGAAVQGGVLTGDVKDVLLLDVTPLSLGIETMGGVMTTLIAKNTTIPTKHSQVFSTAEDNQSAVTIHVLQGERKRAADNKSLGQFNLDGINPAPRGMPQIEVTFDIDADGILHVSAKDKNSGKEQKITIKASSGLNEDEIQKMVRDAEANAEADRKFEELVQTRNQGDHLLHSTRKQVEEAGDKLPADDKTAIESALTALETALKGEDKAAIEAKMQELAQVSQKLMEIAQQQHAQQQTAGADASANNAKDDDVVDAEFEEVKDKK

Structure (SMILES)	Kd
CC(=O)c1sc2nc(N)nn2c1C	> 4 mM (inactive)
Cc1onc(-c2c(Cl)cccc2Cl)c1C(N)=O	> 4 mM (inactive)
Cc1ccc(N2C(=O)C3C4C=CC(O4)C3C2=O)cc1 (centres undefined)	> 4 mM (inactive)
CN1C(=O)/C(=C\c2ccc[nH]2)SC1=S	> 4 mM (inactive)
COC(=O)Cn1c2ccccc2c2nc(C)sc21	> 4 mM (inactive)
C[C@]12CC(=O)C3C(CC[C@@H]4C[C@H](O)CC[C@]34C)C1CC[C@]2(O)C(=O)CO (some centres undefined)	> 4 mM (inactive)
COc1nc(N2CCOCC2)nc(N)c1[N+](=O)[O-]	> 4 mM (inactive)
O=C1CCCC2C3CC(CN12)[C@@H]1CCCCN1C3 (some centres undefined)	> 4 mM (inactive)
O=C1CNCc2[nH]c3ccccc3c2N1c1ccccc1	> 4 mM (inactive)
Cc1cc(C)n2nc(Cc3ccccc3)nc2n1	> 4 mM (inactive)
COc1cc2c(cc1OC)C(=O)OC2	> 4 mM (inactive)
Clc1ccccc1OCCn1ccnc1	> 4 mM (inactive)
Cn1ccc(C(=O)NC(=S)NN2CCOCC2)n1	> 4 mM (inactive)
O=C(O)c1ccc(N2CCCCC2)cc1	> 4 mM (inactive)
CC(C)CCCC(C)C1CCC2C3C[C@@H](O)[C@@]4(O)C[C@@H](O)CC[C@]4(C)C3CC[C@]12C (some centres undefined)	> 4 mM (inactive)
CCc1sc(C(=O)NC)cc1Br	> 4 mM (inactive)
O=S(=O)(NCc1ccco1)N1CCOCC1	> 4 mM (inactive)
NC(=O)Cn1nc(-c2ccco2)ccc1=O	> 4 mM (inactive)
O=C(O)c1ccc(-c2ccccn2)s1	> 4 mM (inactive)
C[C@@H]1CC[C@@]23CCC4(C)[C@@](C=CC5[C@@]6(C)CC[C@H](O)C(C)(C)C6CC[C@]54C)(OC2=O)C3[C@H]1C (some centres undefined)	> 4 mM (inactive)
OC1CCCN(Cc2ccccc2)C1 (centres undefined)	> 4 mM (inactive)
COC(=O)c1[nH]c2ccccc2c1C(=O)OC	> 4 mM (inactive)
O=C1CC(C(=O)O)c2ccccc21 (centres undefined)	> 4 mM (inactive)
CCc1ccc(/C=N/n2cnnc2)cc1	> 4 mM (inactive)

Structure (SMILES)	Kd
Cc1ccc(C(=O)N2CCOCC2)cc1Cl	> 4 mM (inactive)
NCC(O)c1ccc(O)cc1 (centres undefined)	> 4 mM (inactive)
O=C(O)C1CCN(C(=O)c2cccs2)CC1	> 4 mM (inactive)
COc1ccc(Cl)cc1NC(=O)c1ccco1	> 4 mM (inactive)
O=C(O)c1cnc2n(c1=O)CCS2	> 4 mM (inactive)
OCC1COc2ccccc2O1 (centres undefined)	> 4 mM (inactive)
CC(=O)Nc1ccc(S(=O)(=O)NC(N)=O)cc1	> 4 mM (inactive)
O=C(NCc1cccc(Cl)c1)c1cccnc1	> 4 mM (inactive)
COc1ccc(-c2cc(=O)c3c(O)cc(O[C@@H]4O[C@H](CO[C@H]5O[C@H](C)[C@@H](O)[C@H](O)[C@@H]5O)[C@@H](O)[C@H](O)[C@H]4O)cc3o2)cc1O	> 4 mM (inactive)
OCc1cccc2c1OCCO2	> 4 mM (inactive)
CCn1c2ccccc2c2nn(C)c(=N)nc21	> 4 mM (inactive)
CC(=O)CS(=O)(=O)c1ccccc1	> 4 mM (inactive)
CSc1nc(-c2ccco2)nn1S(C)(=O)=O	> 4 mM (inactive)
NC(Cn1ccc(=O)c(O)c1)C(=O)O (centres undefined)	> 4 mM (inactive)
C/C=C(\C)C(=O)O[C@H]1C[C@@H](OC(C)=O)[C@@]2(C(=O)OC)CO[C@@H]3C2[C@]12CO[C@](O)(C(=O)OC)[C@H]2[C@](C)(C12O[C@@]1(C)[C@H]1C[C@@H]2OC2OC=C[C@@]21O)[C@@H]3O (some centres undefined)	> 4 mM (inactive)
CCn1nnnc1Oc1ccc(Cl)cc1	> 4 mM (inactive)
CCOC(=O)c1c(C)cc(O)c(C=O)c1O	> 4 mM (inactive)
COc1ccc(NS(=O)(=O)c2ccc(N)cc2)nn1	> 4 mM (inactive)
O=C(Nc1nc2c(s1)CCCC2)c1cccnc1	> 4 mM (inactive)
CCC(=O)NC(=S)Nc1ccc(N2CCOCC2)cc1	> 4 mM (inactive)
CC(C)CCCC(C)[C@H]1CCC2C3CC[C@@H]4C[C@H](O)CC[C@]4(C)C3CC[C@@]21C (some centres undefined)	> 4 mM (inactive)
N=C1/C(=C\c2ccccc2)C(=O)N=C2SC=NN12	> 4 mM (inactive)
COc1ccc(C(=O)/C=C/c2ccccc2)cc1	> 4 mM (inactive)
O=C(CSc1ncn[nH]1)c1ccc2c(c1)OCCO2	> 4 mM (inactive)

Structure (SMILES)	Kd
CC1(C)C(=O)CC[C@@]2(C)C1C[C@@H](O)[C@@]1(C)C3=CC(=O)O[C@@H](c4ccoc4)[C@]3(C)CCC21 (some centres undefined)	> 4 mM (inactive)
CN1CCOc2cc(C(=O)O)ccc21	> 4 mM (inactive)
CCCCCCCCCCCC1=C(O)C(=O)C=C(O)C1=O	> 4 mM (inactive)
Cc1cc(C(=O)N2CCN(c3ccccn3)CC2)c(C)o1	> 4 mM (inactive)
Oc1cnc2ccccc2c1CN1CCOCC1	> 4 mM (inactive)
NC(=O)c1ccccc1N=Cc1ccco1	> 4 mM (inactive)
Nc1ncnc2c1ncn2CCN1CCOCC1	> 4 mM (inactive)
Cc1cc(C)n2nc(C(=O)Nc3cccnc3)nc2n1	> 4 mM (inactive)
Cc1cc(C)c(C(N)=O)c(=S)[nH]1	> 4 mM (inactive)
Cc1nc(N)sc1C(=O)N/N=C/c1ccncc1	> 4 mM (inactive)
COc1cc(OC)c2c(=O)c(-c3ccc4c(c3)OCO4)coc2c1	> 4 mM (inactive)
Cc1ccccc1NS(=O)(=O)c1ccc(F)cc1	0.2 mM
O=C(O)c1ccc2nccnc2c1	> 4 mM (inactive)
COc1c2ccccc2nc2occc12	> 4 mM (inactive)
CC(=O)O[C@@H]1CC2C(C)(C)[C@H](O)C=C[C@]2(C)C2CC[C@]3(C)C(=CC(=O)O[C@H]3c3ccoc3)[C@@]21C (some centres undefined)	> 4 mM (inactive)
CC(C)=CC(=O)Nc1ccc(S(N)(=O)=O)cc1	> 4 mM (inactive)
Cc1ccc(C(=O)NC2=NCCS2)o1	> 4 mM (inactive)
O=C(c1ccco1)N1CCN(c2ccc(Cl)cc2)CC1	> 4 mM (inactive)
CCNC(=O)CC[C@H](N)C(=O)O	> 4 mM (inactive)
N[C@@H](CCC(=O)N[C@@H](CS)C(=O)NCC(=O)O)C(=O)O	> 4 mM (inactive)
O=C(O)c1csc(-c2cccnc2)n1	> 4 mM (inactive)
CCOC(=O)C1C(=O)C2CCN1CC2 (centres undefined)	> 4 mM (inactive)
Cc1cc(NC(=O)CSc2nncn2C)no1	> 4 mM (inactive)
S=C(Cc1cccnc1)N1CCOCC1	> 4 mM (inactive)

Structure (SMILES)	Kd
CNc1nc(N)c(C(=O)C(C)(C)C)s1	> 4 mM (inactive)
CCC(=O)Oc1ccc(N2C(=O)CCC2=O)cc1	> 4 mM (inactive)
O=C1CSC2=NCCCN12	> 4 mM (inactive)
Nc1cc(-c2ccco2)[nH]n1	> 4 mM (inactive)
O=C(CSc1nnc2ccccn12)N1CCOCC1	> 4 mM (inactive)
COc1cc(C(=S)N2CCOCC2)ccc1O	> 4 mM (inactive)
O=C(c1ccc(F)cc1)C1CCNCC1	> 4 mM (inactive)
COc1cccc(C(=O)Nc2c(C)n[nH]c2C)c1	> 4 mM (inactive)
O[C@H]1C=C2CCN3Cc4cc5c(cc4C(C23)[C@@H]1O)OCO5 (some centres undefined)	> 4 mM (inactive)
COC(=O)C[C@@H]1C2(C)C(=O)[C@@H](CC3=C4CC(=O)O[C@@H](c5ccoc5)[C@]4(C)CCC32)[C@H](OC(C)=O)C1(C)C (some centres undefined)	> 4 mM (inactive)
C/C=C(\C)c1nnc(NC(=O)c2ccco2)s1	> 4 mM (inactive)
O=C(O)CC1C(=O)NCCN1Cc1cccs1 (centres undefined)	> 4 mM (inactive)
Oc1ccccc1N1CCOCC1	> 4 mM (inactive)
O=C(CSc1ccccc1)N1CCC2(CC1)OCCO2	> 4 mM (inactive)
CSc1ccc2nnc(-c3cccnc3)n2n1	> 4 mM (inactive)
Cc1n[nH]c(C)c1NC(=O)c1cccc(F)c1	> 4 mM (inactive)
CC(=O)Oc1ccc(/C=C/c2cc(OC(C)=O)cc(OC(C)=O)c2)cc1	> 4 mM (inactive)
Oc1ccccc1-c1cc(C(F)(F)F)[nH]n1	> 4 mM (inactive)
CN1CCN(C(=O)c2ccco2)CC1	> 4 mM (inactive)
Cc1ccc(/C=N/n2c(C)nnc2C)cc1	> 4 mM (inactive)
CCc1ccc2oc(-c3cc(N)cc(C)c3O)nc2c1	> 4 mM (inactive)
C/C=C/C(=O)Nc1ccc(NC(C)=O)cc1	> 4 mM (inactive)
CN1C(=O)N(C)C2NC(=O)NC21 (centres undefined)	> 4 mM (inactive)
O=C(NCc1cccc2ccccc12)c1cccs1	< 0.2 mM

Structure (SMILES)	Kd
CC(C)c1c(O)ccc2c1CCC1[C@@](C)(CO)CCC[C@]21C (some centres undefined)	> 4 mM (inactive)
COC(CC(=O)O)c1nc2ccccc2s1 (centres undefined)	> 4 mM (inactive)
CN(C)N1C(=O)C2CCCCC2C1=O (centres undefined)	> 4 mM (inactive)
C=C1C(=O)O[C@@H]2C[C@@]3(C)CCC[C@H](C)C3=C[C@H]12	> 4 mM (inactive)
Brc1cccc(-c2nnco2)c1	> 4 mM (inactive)
O=c1[nH]c(=S)[nH]c2c1CCC2	> 4 mM (inactive)
CCc1c(C(=O)Nc2ccncc2)csc1C	> 4 mM (inactive)
NC(=O)CSc1nnc2ccc(-c3ccco3)nn12	> 4 mM (inactive)
S=c1nc[nH]c2c1cnn2-c1ccccc1	> 4 mM (inactive)
Nc1cccc2c(=O)[nH][nH]c(=O)c12	> 4 mM (inactive)
Nc1ccc2c(c1)C(=O)OC2	> 4 mM (inactive)
O=C(O)C1CSC2(CCCCC2)N1 (centres undefined)	> 4 mM (inactive)
Cn1c(CN)nc2ccccc21	> 4 mM (inactive)
S=C(c1ccc(N2CCOCC2)cc1)N1CCOCC1	> 4 mM (inactive)
O=C1C=CC2=C3c4cc(O)c(O)cc4CC3(O)COC2=C1O (centres undefined)	> 4 mM (inactive)
c1ccc2[nH]c(SCc3cscn3)nc2c1	> 4 mM (inactive)
Cc1cc(N)n(-c2ccccc2)n1	> 4 mM (inactive)
CC1(C)N=C2C(=N)C=CC=C2N1O	> 4 mM (inactive)
NC1CS(=O)(=O)CC1O (centres undefined)	> 4 mM (inactive)
NC(=O)CSc1nnc(-c2cccnc2)o1	> 4 mM (inactive)
O=C(/C=C/c1ccccc1)c1ccc(O)cc1	> 4 mM (inactive)
C/C(=C\CO)CC[C@H](C)CCC[C@H](C)CCCC(C)C	> 4 mM (inactive)
OCc1snnc1-c1ccccc1	> 4 mM (inactive)
